One series deals with Pol II (Homo sapiens, UniProt P24928). Briefly: biochemical. In kind it is biochemical.
In another series the target is calf thymus RNAP II (Bos taurus, UniProt G3MZY8). To be noted: cited from earlier work.
The subject of a further series is white mice. To be noted: mouse, in vivo; cited from earlier work.
In another series the test system is SK-BR-3 cells. In kind it is cell-based. To be noted: read-out: IC50, cell viability on SK-BR-3 cells.

The values below come from patent US20260258086A1 (priority 2021, published 2026).

Read-outs that look alike come from different tables or passages of the source. Numbered stars: 1 amine (or outer) side, 2 acyl side, 3 side chain; on linkers, the order of the positions; unused ones are H or OH. Bridge positions count the residues as written; N and C are the ends. Square brackets hold non-standard residues; d marks the D form. Peptide text beside a SMILES is read from it. X4 = O=C([C@@H](Cc1c([*:3])[nH]c2ccc(O)cc12)N[*:1])[*:2]; X2 = O=C([C@@H](Cc1c([*:3])[nH]c2ccccc12)N[*:1])[*:2]; Ile(4R-OH,5-OH) = C[C@H]([C@H](N)C(=O)O)[C@@H](O)CO; X5 = C[C@@H](S[*:3])[C@H](N[*:1])C(=O)[*:2]; X1 = C[C@H](S[*:3])[C@H](N[*:1])C(=O)[*:2]; X3 = CS[C@H](C)[C@H](N[*:1])C(=O)[*:2]; Gly(cPent) = N[C@H](C(=O)O)C1CCCC1; Nva(3-Et) = CCC(CC)[C@H](N)C(=O)O; Hyp = O=C(O)[C@@H]1C[C@@H](O)CN1; Pen = CC(C)(S)[C@H](N)C(=O)O Where only a bound is given, the exact number is not on record here.

A word on the IC50: it is the point on the concentration scale where inhibition reaches its midpoint. Take `CC[C@H](C)[C@@H]1NC(=O)CNC(=O)[C@H]2Cc3c([nH]c4ccccc34)S[C@@H](C)[C@H](NC(=O)CNC1=O)C(=O)N[C@@H](CC(N)=O)C(=O)N1C[C@H](O)C[C@H]1C(=O)N[C@@H]([C@@H](C)[C@@H](O)CO)C(=O)N2` [Compound I(i), (2R,3S)-β-Methyl-Cys^8-Dideoxyamanitin] (cyclo(GIG[X1]N[Hyp][Ile(4R-OH,5-OH)][X2]); thioether 4-8): the values for the IC50 in the series with HEK293 cells and in the series on CHO cells were 240 ± 50 nM and 610 ± 170 nM, respectively.
One may read the Ki as a measure of affinity in units of concentration, obtained from inhibition or displacement. On Pol II, `CC[C@H](C)[C@@H]1NC(=O)CNC(=O)[C@H]2Cc3c([nH]c4ccccc34)S[C@H](C)[C@H](NC(=O)CNC1=O)C(=O)N[C@@H](CC(N)=O)C(=O)N1C[C@H](O)C[C@H]1C(=O)N[C@@H]([C@@H](C)[C@@H](O)CO)C(=O)N2` [Compound I(ii), (2R,3R)-β-Methyl-Cys^8-Dideoxyamanitin] (cyclo(GIG[X5]N[Hyp][Ile(4R-OH,5-OH)][X2]); thioether 4-8) had a Ki of more than 1000 nM. Also, in the series with CHO cells, the IC50 was more than 15000 nM.
Regarding `CC[C@H](C)[C@@H]1NC(=O)CNC(=O)[C@H]2Cc3c([nH]c4ccccc34)SC(C)(C)[C@H](NC(=O)CNC1=O)C(=O)N[C@@H](CC(N)=O)C(=O)N1C[C@H](O)C[C@H]1C(=O)N[C@@H]([C@@H](C)[C@@H](O)CO)C(=O)N2` [Compound I(iii), Pen^8-Dideoxyamanitin] (cyclo(GIG[Pen]N[Hyp][Ile(4R-OH,5-OH)][X2]); thioether 4-8), in the series with CHO cells, the IC50 was found to be 2700 ± 590 nM and the “cytotoxicity compared with α-amanitin, in words” value is “intermediately toxic”.
On to `CC[C@H](C)[C@@H]1NC(=O)CNC(=O)[C@H]2Cc3c([nH]c4ccccc34)SC[C@H](NC(=O)CNC1=O)C(=O)N[C@@H](CC(N)=O)C(=O)N1C[C@H](O)C[C@H]1C(=O)N[C@@H]([C@@H](C)[C@@H](O)CO)C(=O)N2` [Compound I(iv), aza-Gly^7-Dideoxyamanitin] (cyclo(CN[Hyp][Ile(4R-OH,5-OH)][X2]GIG); thioether 1-5), for which the IC50 is 5600 ± 780 nM in the series with HepG2 cells, 260 ± 70 nM in the series on HEK293 cells, 3300 ± 390 nM in the series with HeLa cells and 170 ± 30 nM with CHO cells. The “cytotoxicity, in words” value in the series with HEK293 cells and in the series on HeLa cells was “increased cytotoxicity” each time.
In the series with HEK293 cells, `CC[C@H](C)[C@@H]1NC(=O)CNC(=O)[C@H]2Cc3c([nH]c4ccccc34)SC[C@H](NC(=O)CNC1=O)C(=O)N[C@@H](CC(N)=O)C(=O)N1C[C@H](O)C[C@H]1C(=O)N[C@@H]([C@@H](C)[C@@H](O)CO)C(=O)N2` [Compound I(ix), aza-Gly^5-Dideoxyamanitin] (cyclo(CN[Hyp][Ile(4R-OH,5-OH)][X2]GIG); thioether 1-5) had an IC50 of 210 ± 50 nM. For the same molecule, in the series with CHO cells, the 50% inhibitory concentration (IC50) amounted to 1900 ± 520 nM and the “cytotoxicity compared with α-amanitin, in words” value was “only a two-fold reduction in cytotoxicity”.
As to `CS[C@H](C)[C@@H]1NC(=O)CNC(=O)[C@H]2Cc3c([nH]c4ccccc34)SC[C@H](NC(=O)CNC1=O)C(=O)N[C@@H](CC(N)=O)C(=O)N1C[C@H](O)C[C@H]1C(=O)N[C@@H]([C@@H](C)[C@@H](O)CO)C(=O)N2` [Compound I(v), Thia-Ile^6-Dideoxyamanitin] (cyclo(CN[Hyp][Ile(4R-OH,5-OH)][X2]G[X3]G); thioether 1-5), the IC50 is more than 20000 nM in the series on HepG2 cells, 830 ± 150 nM in the series with HEK293 cells, 16000 ± 2300 nM in the series on HeLa cells and 4400 ± 730 nM in the series on CHO cells. Besides, the “Pol II / transcription inhibition, in words” value at Pol II is reported as “high Pol II inhibition”.
On to `CO[C@H](C)[C@@H]1NC(=O)CNC(=O)[C@H]2Cc3c([nH]c4ccccc34)SC[C@H](NC(=O)CNC1=O)C(=O)N[C@@H](CC(N)=O)C(=O)N1C[C@H](O)C[C@H]1C(=O)N[C@@H]([C@@H](C)[C@@H](O)CO)C(=O)N2` [Compound I(vi), Oxo-Ile^6-Dideoxyamanitin] (cyclo(CN[Hyp][Ile(4R-OH,5-OH)][X2]GT(Me)G); thioether 1-5), for which, in the series on CHO cells, the IC50 is more than 15000 nM and the “cytotoxicity compared with α-amanitin, in words” value is on record as “no observable cytotoxicity”.
For the molecule `CCC(CC)[C@@H]1NC(=O)CNC(=O)[C@H]2Cc3c([nH]c4ccccc34)SC[C@H](NC(=O)CNC1=O)C(=O)N[C@@H](CC(N)=O)C(=O)N1C[C@H](O)C[C@H]1C(=O)N[C@@H]([C@@H](C)[C@@H](O)CO)C(=O)N2` [Compound I(vii), Diethylala^6-Dideoxyamanitin] (cyclo(CN[Hyp][Ile(4R-OH,5-OH)][X2]G[Nva(3-Et)]G); thioether 1-5), the IC50 in the series on HEK293 cells was found to be 170 ± 30 nM; with CHO cells, 380 ± 110 nM.
As for `C[C@H]([C@@H]1NC(=O)[C@@H]2C[C@@H](O)CN2C(=O)[C@H](CC(N)=O)NC(=O)[C@@H]2CSc3[nH]c4ccccc4c3C[C@@H](NC1=O)C(=O)NCC(=O)N[C@@H](C1CCCC1)C(=O)NCC(=O)N2)[C@@H](O)CO` [Compound I(viii), Cyclopentylgly^6-Dideoxyamanitin] (cyclo(CN[Hyp][Ile(4R-OH,5-OH)][X2]G[Gly(cPent)]G); thioether 1-5), in the series on CHO cells, half-maximal inhibition (IC50) required 1700 ± 270 nM and the “cytotoxicity compared with α-amanitin, in words” value is reported as “considerably diminished toxicity”.
For the molecule `CCC(CC)[C@@H]1NC(=O)CNC(=O)[C@H]2Cc3c([nH]c4ccc(O)cc34)SC[C@H](NC(=O)CNC1=O)C(=O)N[C@@H](CC(N)=O)C(=O)N1C[C@H](O)C[C@H]1C(=O)N[C@@H]([C@@H](C)[C@@H](O)CO)C(=O)N2` [Compound I(xi), 5-OH Trp^4, Diethylala^6-Deoxyamanitin] (cyclo(CN[Hyp][Ile(4R-OH,5-OH)][X4]G[Nva(3-Et)]G); thioether 1-5), the IC50 in the series on HEK293 cells came out at 80 ± 10 nM; in the series on CHO cells, 1200 ± 330 nM.
With `CCC(CC)[C@@H]1NC(=O)CNC(=O)[C@H]2Cc3c([nH]c4ccccc34)S[C@@H](C)[C@H](NC(=O)CNC1=O)C(=O)N[C@@H](CC(N)=O)C(=O)N1C[C@H](O)C[C@H]1C(=O)N[C@@H]([C@@H](C)[C@@H](O)CO)C(=O)N2` [Compound I(xii), Diethylala^6, (2R,3S)-β-Methyl-Cys^8-Dideoxyamanitin] (cyclo(G[Nva(3-Et)]G[X1]N[Hyp][Ile(4R-OH,5-OH)][X2]); thioether 4-8), the IC50 was found to be 5700 ± 1100 nM in the series on HepG2 cells, 110 ± 30 nM in the series on HEK293 cells, 2400 ± 300 nM with HeLa cells and 290 ± 70 nM in the series with CHO cells. The “cytotoxicity, in words” value in the series with HEK293 cells and in the series with HeLa cells was “increased cytotoxicity” each time. Besides, the results for the “toxicity relative to α-amanitin (times / -fold as toxic)” value with HEK293 cells and in the series on CHO cells were 5 and 2, respectively.
Turning to `CCC(CC)[C@@H]1NC(=O)CNC(=O)[C@H]2Cc3c([nH]c4ccc(O)cc34)S[C@@H](C)[C@H](NC(=O)CNC1=O)C(=O)N[C@@H](CC(N)=O)C(=O)N1C[C@H](O)C[C@H]1C(=O)N[C@@H]([C@@H](C)[C@@H](O)CO)C(=O)N2` [Compound I(xiii), 5-OH Trp^4, Diethylala^6, (2R,3S)-β-Methyl-Cys^8-Deoxyamanitin] (cyclo(G[Nva(3-Et)]G[X1]N[Hyp][Ile(4R-OH,5-OH)][X4]); thioether 4-8), the results for the IC50 in the series on HEK293 cells and in the series on CHO cells were 240 ± 50 nM and 1170 ± 370 nM, respectively.
As usually defined, the LD50 is the dose expected to kill half of the subjects tested. Turning to `CC[C@H](C)[C@@H]1NC(=O)CNC(=O)[C@@H]2Cc3c([nH]c4ccccc34)[S+]([O-])C[C@H](NC(=O)CNC1=O)C(=O)N[C@@H](CC(=O)O)C(=O)N1C[C@H](O)C[C@H]1C(=O)N[C@@H]([C@@H](C)[C@@H](O)CO)C(=O)N2` (stereo partly shown) [amanin], the Ki on calf thymus RNAP II was 5 nM. Also, in the series with white mice, the LD50 is reported as 0.3 mg/kg.
For the molecule `CC[C@H](C)[C@@H]1NC(=O)CNC(=O)[C@@H]2Cc3c([nH]c4ccccc34)[S+]([O-])C[C@H](NC(=O)CNC1=O)C(=O)N[C@@H](CC(N)=O)C(=O)N1C[C@H](O)C[C@H]1C(=O)N[C@@H]([C@@H](C)[C@@H](O)CO)C(=O)N2` (stereo partly shown) [amaninamide], the inhibition constant Ki at calf thymus RNAP II was 5 nM. Further, the LD50 with white mice is reported as 20 mg/kg.
Consider `CC[C@H](C)[C@@H]1NC(=O)CNC(=O)[C@@H]2Cc3c([nH]c4cc(O)ccc34)[S+]([O-])C[C@H](NC(=O)CNC1=O)C(=O)N[C@@H](CC(N)=O)C(=O)N1C[C@H](O)C[C@H]1C(=O)N[C@@H]([C@@H](C)CC)C(=O)N2` (stereo partly shown) [amanullin], for which the Ki on calf thymus RNAP II is 10 nM. The LD50 with white mice is listed as more than 20 mg/kg.
For `CC[C@H](C)[C@@H]1NC(=O)CNC(=O)[C@@H]2Cc3c([nH]c4cc(O)ccc34)[S+]([O-])C[C@H](NC(=O)CNC1=O)C(=O)N[C@@H](CC(=O)O)C(=O)N1CCC[C@H]1C(=O)N[C@@H]([C@@H](C)CC)C(=O)N2` (stereo partly shown) [proamanullin], the median lethal dose (LD50) in the series on white mice is listed as more than 20 mg/kg.
Take Herceptin: the IC50 in the series with SK-BR-3 cells is more than 1000 nM.
For the molecule amanullinic acid, the LD50 with white mice was more than 20 mg/kg.
Consider β-amanitin, for which, at calf thymus RNAP II (read-out: Ki), the Ki is 2.5 nM. Besides, in the series with white mice, the 50% lethal dose (LD50) is given as 0.5 mg/kg.
For γ-amanitin, the Ki on calf thymus RNAP II (read-out: Ki) was 5 nM. In the series with white mice, the LD50 is given as 0.2 mg/kg.
Regarding ε-amanitin, the LD50 in the series with white mice was 0.3 to 0.6 mg/kg.
